For test [1], the system named is mouse. The test can be described thus: Light dark box test in the mouse after subchronic oral gavage. The class given is in vivo. The note with it: for Number of crossings, mean ± sem / Time spent in light compartment, mean ± sem: 5 h and 1 h before test; for Number of crossings, mean ± sem: vehicle 6.5 ± 1.0; for Time spent in light compartment, mean ± sem: vehicle 64.4 ± 4.7; for Number of crossings, % change / Time spent in light compartment, % change: versus vehicle control. An excerpt:
The method, which detects anxiolytic activity, follows that described by Crawley (Pharmacol. Biochem. Behav. 1981, 15, 695-699). Anxiolytics increase the time spent in the light compartment.
Animals were placed into the light compartment of a 2-compartment box with one half light and open (25×27×27 cm) and the other half dark and closed (20×27×27 cm). The time spent in each compartment as well as the number of times the animal crosses from one side to the other is scored during a 3-minute test. 15 mice were studied per group. The test was performed blind. […]
Clobazam (32 mg/kg orally), administered 1 hour before the test, will be used as reference substance. Mice in this group received additional administrations of vehicle at 25 and 5 hours before the test in order to maintain experimental blinding.

Test [2] addresses T1, human serotonin re-uptake transporter (hSERT) (Homo sapiens, UniProt P31645).
T1 construct: host or cells: HEK-293
The test can be described thus: Serotonin uptake inhibition in HEK-293 cells expressing hSERT. The class given is cell-based. The note with it: for Ki: transfected HEK-293 cells, Ki from measured IC50 by Cheng-Prusoff, average +/− s.e.m. of two experiments, read-out: Inhibition constant Ki for tritiated serotonin uptake; for Effect on serotonin re-uptake (hSERT dependent uptake of tritiated serotonin into transfected cells): result in words. An excerpt:
HEK-293 cells stably expressing the human serotonin re-uptake transporter (hSERT) were obtained from R. Blakely, Vanderbilt University, USA. The cells were routinely grown in Dulbeco's Modified Eagles Medium (Bioconcept) containing 10% fetal calf serum, penicillin, streptomycin, L-glutamine and the antibiotic G418 and passaged by trypsinisation. On the day of assay, cells from 80% confluent flasks were harvested by gentle washing with warm phosphate buffered saline (PBS). Cells were then washed once by centrifugation and re-suspended in Krebs Ringers bicarbonate buffer (Sigma) supplemented with 35 μM pargyline, 2.2 mM CaCl2, 1 mM ascorbic acid and 5 mM N-2-hydroxyethylpiperazine-N′-2-ethanesulfonic acid (buffer called “Hepes”) at a concentration of 10,000 cells in 160 ul of buffer, and aliquoted into round bottomed polypropylene 96 well microtitre plates (Corning) at 10,000 cells per well. Serotonin uptake into the cells was determined by addition of radio-labeled (3H) serotonin (GE Healthcare) to a concentration of 20 nM, and incubation for 40 minutes at 37° C. with gentle shaking. At the end of this time unincorporated label was removed by filtration though Unifilter 96 GF/B plates (Perkin Elmer) using a Tomtec Mach III M cell harvester. The incorporated serotonin retained on the plates was quantified by liquid scintillation counting using Microscint-40/Topcount (Perkin Elmer).
The effect of (−)-humulone and lupulone on the serotonin uptake was determined by their inclusion in the assay at a range of concentrations between 0.03 and 100 μM for 10 minutes prior to and during the addition of (3H) serotonin. Serotonin uptake via the transporter was inhibited by (−)-humulone and lupulone, respectively, in a dose dependent manner.
The calculated inhibition constants Ki, derived from the measured IC50 using the Cheng-Prusoff equation (Y. C. Cheng, W. H. Prusoff, Biochem. Pharmacol. 1973, 22, p. 3099-3108), for inhibition of serotonin uptake by (−)-humulone and lupulone are shown in Table 1.

For test [3], the system named is mouse. The test can be described thus: Primary observation (Irwin) test in the mouse. The note with it: 30 mg/kg i.p., 5 mice per group. It is filed as in vivo. The source says: The method, which detects the first toxic dose, the active dose-range and the principal effects of a test substance on behaviour and physiological function, follows that described by Irwin (Irwin S. Comprehensive observational assessment: A systematic quantitative procedure for assessing the behavioural and physiologic state of the mouse. Psychopharmacologia, 1968, 13, 222-257).
3 treated groups were compared with the same control at any one time. All animals within a treatment group were observed simultaneously.
Behavioural modifications, physiological and neurotoxicity symptoms, pupil diameter and rectal temperature were recorded according to a standardized observation grid derived from that of Irwin. The grid contains the following items: lethality*, convulsions*, tremor*, Straub*, sedation, excitation, abnormal gait* (rolling, tip-toe), jumps*, motor incoordination*, writhes*, piloerection*, stereotypies* (sniffing, chewing, head movements), head twitches*, scratching*, respiration*, aggressiveness*, fear, reactivity to touch, muscle tone, loss of righting reflex, ptosis, exopthalmos, loss of grasping, akinesia, catalepsy, loss of traction, loss of corneal reflex, analgesia, defecation, salivation, lacrimation, pupil diameter (Unit=1/45 mm) and rectal temperature.
Observations were performed 15, 30, 60, 120 and 180 minutes after administration of the test substance ((−)-humulone) and also 24 hours later. The symptoms marked (*) were observed continuously from 0 to 15 minutes after administration. 5 mice were studied per group.
(−)-Humulone was solubilized in physiological saline and injected into mice intraperitoneally.

For test [4], the system named is mouse. In words: Marble burying test in the mouse. It is filed as in vivo. Particulars: for Number of marbles covered by sawdust, mean ± s.e.m.: vehicle 20.1 ± 1.7. An excerpt:
The method applied here follows that described by Broekkamp et al. (European Journal of Pharmacology 1986, 126, 223-229.). Mice (n=15 per treatment group) were individually placed in transparent plastic cages (33×21×18 cm) with 5 cm of sawdust on the floor and 25 marbles (diameter 1 cm) grouped in the centre of the cage. A second, up-turned, cage served as a lid. The number of marbles covered by sawdust (by at least two-thirds) was counted at the end of the 30-minute test period. Tests were performed by investigators blind to the drug treatment protocol.
Prior to testing, all test cages and marbles were “impregnated” by leaving 10 naive mice in each cage for 15 minutes.
(−)-Humulone was solubilized in physiological saline. The control substance fluoxetine (Prozac®) (Lilly), batches n^o A069667 and A058238) was dispersed in 0.2% hydroxypropylmethylcellulose (HPMC) in physiological saline.
(−)-Humulone was evaluated at 3, 10 and 30 mg/kg, administered i.p. 30 minutes before the test, and compared with a vehicle control group. Fluoxetine (32 mg/kg), administered under the same experimental conditions, was used as a reference substance.
Data were analysed by comparing treated groups with vehicle control using unpaired Student's t-tests.

The mark [5] stands for this setting: 50 mg/kg p.o., listed as (−)-Humulone.

T1 sequence (P31645 whole entry): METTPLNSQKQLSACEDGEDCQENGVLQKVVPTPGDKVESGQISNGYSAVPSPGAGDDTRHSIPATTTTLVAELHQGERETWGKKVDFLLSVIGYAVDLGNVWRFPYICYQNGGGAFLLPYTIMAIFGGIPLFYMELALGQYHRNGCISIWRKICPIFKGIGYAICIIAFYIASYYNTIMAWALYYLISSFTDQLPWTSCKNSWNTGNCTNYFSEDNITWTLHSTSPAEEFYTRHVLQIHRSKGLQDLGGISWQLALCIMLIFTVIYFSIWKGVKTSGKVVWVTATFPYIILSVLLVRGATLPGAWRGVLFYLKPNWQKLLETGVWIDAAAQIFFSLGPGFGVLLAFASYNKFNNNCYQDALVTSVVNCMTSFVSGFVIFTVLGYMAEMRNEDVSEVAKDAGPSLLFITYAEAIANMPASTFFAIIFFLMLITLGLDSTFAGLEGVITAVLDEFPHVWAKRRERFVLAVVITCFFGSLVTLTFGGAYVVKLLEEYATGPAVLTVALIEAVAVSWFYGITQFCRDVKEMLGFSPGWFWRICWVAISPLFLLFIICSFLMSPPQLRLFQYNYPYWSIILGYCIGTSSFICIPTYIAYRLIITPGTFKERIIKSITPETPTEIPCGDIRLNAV

A word on the Ki: it is a measure of affinity in units of concentration, obtained from inhibition or displacement. For `CC(C)=CCC1C(=O)C(C(=O)CC(C)C)=C(O)C(O)(CC=C(C)C)C1=O` (single isomer, unassigned; (-)) [(−)-humulone], the “Number of crossings, mean ± sem” value with mouse [1] (50 mg/kg p.o. -24 h) is given as 13.7 ± 1.3; in the test with mouse [1] (100 mg/kg p.o. -24 h), 7.9 ± 1.0; with mouse [1] (200 mg/kg p.o. -24 h), 8.3 ± 1.2. For the same molecule, the “Time spent in light compartment, mean ± sem” value is 95.4 ± 3.8 s in the test on mouse [1] (50 mg/kg p.o. -24 h), 86.4 ± 8.9 s in the test on mouse [1] (100 mg/kg p.o. -24 h) and 71.5 ± 8.8 s in the test on mouse [1] (200 mg/kg p.o. -24 h). For the same molecule, the “Number of crossings, % change” value in the test on mouse [1] (50 mg/kg p.o.) is “+111%”; in the test with mouse [1] (setting [5]) it was “+111%”; in the test with mouse [1] (100 mg/kg p.o.), “+22%”; with mouse [1] (200 mg/kg p.o.) it was “+28%”. Further, the “Time spent in light compartment, % change” value is on record as “+48%” in the test on mouse [1] (50 mg/kg p.o.); “+48%” in the test on mouse [1] (setting [5]); “+34%” in the test with mouse [1] (100 mg/kg p.o.); “+34%” with mouse [1] (100 mg/kg p.o., listed as (−)-Humulone); “+11%” with mouse [1] (200 mg/kg p.o.); “+11%” with mouse [1] (200 mg/kg p.o., listed as (−)-Humulone). Besides, the Ki in test [2] was 16.9 µM. Also, the “Decreased fear, number of mice” value was 3 mice in the test on mouse [3] (at 30 minutes) and 1 mouse with mouse [3] (at 60 minutes). Further, the “Decreased muscle tone, number of mice” value in the test on mouse [3] (at 30 minutes) was found to be 4 mice; in the test on mouse [3] (at 60 minutes) it was 1 mouse. For the same molecule, the “Number of marbles covered by sawdust, % change from control” value with mouse [4] (3 mg/kg i.p. −30 min) was −9%; with mouse [4] (10 mg/kg i.p. −30 min) it was −13%; with mouse [4] (30 mg/kg i.p. −30 min), −81%. The “Number of marbles covered by sawdust, mean ± s.e.m.” value was 18.3 ± 1.7 (NS) with mouse [4] (3 mg/kg i.p. −30 min), 17.5 ± 2.0 (NS) with mouse [4] (10 mg/kg i.p. −30 min) and 3.8 ± 1.5 (***) in the test on mouse [4] (30 mg/kg i.p. −30 min).

On to “6-hydroxylupulone [compound 4, reference compound]”, for which the “Effect on serotonin re-uptake (hSERT dependent uptake of tritiated serotonin into transfected cells)” value (from here on “Effect on serotonin re-uptake”) in test [2] is “no effect”.

`CC(C)=CCC1=C(O)C(C(=O)CC(C)C)=C(O)C(CC=C(C)C)(CC=C(C)C)C1=O` [Lupulone, lupulone]: in test [2], the “Effect on serotonin re-uptake” value is given as “inhibited” and the Ki worked out at 6 µM.

For the molecule “6-hydroxycolupulone [compound 5, reference compound]”, the “Effect on serotonin re-uptake” value in test [2] is listed as “no effect”.

As to `CNCCC(Oc1ccc(C(F)(F)F)cc1)c1ccccc1` (stereo not shown) [FLUOXETINE, fluoxetine, reference compound], in the test with mouse [4] (32 mg/kg i.p. −30 min), the “Number of marbles covered by sawdust, % change from control” value is reported as −91% and the “Number of marbles covered by sawdust, mean ± s.e.m.” value is recorded as 1.9 ± 1.0 (***).

As for `CC(C)=CCC(=O)C1(O)C(O)=C(C(=O)CC(C)C)C(=O)C1CC=C(C)C` (stereo not shown) [compound 3, isohumulone, reference compound], the “Effect on serotonin re-uptake” value in test [2] is listed as “no effect”.

The values above are taken from patent publication US7919531B2, “3,5-dihydroxy-2,4-cyclohexadienones and their derivatives, dietary compositions and fortified food containing them and their uses” (DSM IP Assets B.V., priority 2006, dated 2011).
